Test results published in patent US20220409617A1, “Drug Formulations and Methods of Treatment for Metabolic Disorders” (The Regents of the University of California, priority 2019, published 2022).

Tested on: hepatic lipid accumulation
Assay: Hepatic steatosis and lipidomic profiling of liver and quadriceps muscle
Type: in vivo, mouse
Details: HFD-fed mice
Experimental: Lipids were extracted from liver and quadriceps tissue using a modified MTBE method (Matyash et al, 2008; Abbott et al, 2013). Briefly, 10 mg/ml of tissue was homogenized in ice-cold 150 mM ammonium acetate using a bead homogenizer (1.4 mm ceramic) kept below 4° C. using liquid nitrogen vapor (Precellys 24 homogenizer with Cryolys cooling unit, Bertin Technologies, Montigny-le-Bretonneux, France). From this, 20 μl of homogenized tissues were added to glass vials containing MTBE and methanol (3:1 v/v, with 0.01% BHT), alongside 10 μl of an internal standard solution containing 10 μM each: phosphatidylcholine (PC) 17:0/17:0, phosphatidylethanolamine (PE) 17:0/17:0, phosphatidylserine (PS) 17:0/17:0, phosphatidylglycerol (PG) 17:0/17:0, lysophosphatidylcholine (LPC) 17:0, lysophosphatidylethanolamine (LPE) 14:0, ceramide (Cer) d18:1/17:0, dihydrosphingomyelin d18:0/12:0, diacylglycerol (DAG) 17:0/17:0, D5-triacylglycerol (TAG) 48:0, and cholesteryl ester (CE) 22:1. Samples were allowed to rotate at 4° C. overnight prior to the addition of 1 volume of ice-cold 150 mM ammonium acetate. Samples were vortexed thoroughly prior to centrifugation (2000×g, 5 min) to enable phase separation. […]
Extracted lipids were analyzed by liquid chromatography-mass spectrometry (LC-MS) using a Dionex Ultimate 3000 LC pump and Q Exactive Plus mass spectrometer equipped with a heated electrospray ionization (HESI) source (Thermo Fisher Scientific). […] Data were acquired in full scan/data-dependent MS2 mode (full scan resolution 70,000 FWHM, max ion injection time 50 ms, scan range m/z 200-1500), with the 10 most abundant ions being subjected to collision-induced dissociation using an isolation window of 1.5 Da and a normalized stepped collision energy of 15/27 eV, with product ions detected at a resolution of 17,500. […]
Lipids were analyzed using MS-DIAL (Tsugawa et al, 2015). Lipids were detected in both positive and negative ionization modes using a minimum peak height of 1×10^4 cps, a MS1 tolerance of 5 ppm and MS2 tolerance of 10 ppm, and a minimum identification score of 50%. […]

## CCCCCCCCc1ccc([C@H]2CCN[C@@H]2CO)cc1.Cl [compound 893]
120 mg/kg
  Hepatic steatosis: eliminated hepatic steatosis
Treated for 4 weeks
  Liver triglyceride and ceramide levels: restored normal triglyceride and ceramide levels in the liver
Treated for 4 weeks, quadriceps
  Muscle ceramide levels: ceramide levels trended lower in muscle
